Assay results from US20240368232A1, “ANTIVIRAL LARAZOTIDE DERIVATIVES” (priority 2021, published 2024).
Several values for one entry are separate records, joined by “and”; a condition that tells them apart may be missing. Equal values may be shown once. Read-outs that look alike come from different tables or passages of the source. Square brackets hold non-standard residues; d marks the D form. Peptide text beside a SMILES is read from it. * marks the point of attachment. ξ: configuration not given here. ξTic = O=C(O)C1Cc2ccccc2CN1; ξY = NC(Cc1ccc(O)cc1)C(=O)O; Heptanoyl = CCCCCCC(=O)*; Boc = CC(C)(C)OC(=O)*

Key:
[1] = test system: cytomegalovirus (HCMV) AD-169 strain; details: read-out: Antiviral activity EC50 AD-169 strain; HCMV in HEL cells; plaque formation reduced by 50%; 100 PFU
in vitro = details: African green monkey
[2] = test system: human embryonic lung (HEL) cells; assay: Cytotoxicity, cell morphology (MCC), HEL cells; type: cell-based
TK^+ VZV strain OKA [3] = details: read-out: Antiviral activity EC50 TK^+ VZV strain OKA; VZV in HEL cells; plaque formation reduced by 50%; 20 PFU
TK^− VZV strain 07-1 [4] = details: read-out: Antiviral activity EC50 TK^− VZV strain 07-1.; VZV in HEL cells; plaque formation reduced by 50%; 20 PFU
[5] = biological target: T1, SARS-COV-2 M^pro (3264-3569aa) (Severe acute respiratory syndrome coronavirus 2, UniProt P0DTD1); assay: FRET assay for TRIP on SARS-COV-2 main protease; type: biochemical
T1 construct: SARS-COV-2 M^pro (3264-3569aa); purchased Proteros WTH_20_1

[6] = test system: cytomegalovirus (HCMV) Davis strain; details: read-out: Antiviral activity EC50 Davis strain; HCMV in HEL cells; plaque formation reduced by 50%; 100 PFU
M^pro enzyme = M^pro enzyme (Severe acute respiratory syndrome coronavirus 2, UniProt P0DTD1); details: MM-GBSA, literature Di Micco et al. 2021; cited from earlier work
[7] = test system: SARS-COV-2 1074 # 2 strain
[8] = test system: SARS-COV-2 1074 # 2 strain; assay: microbe, parasite or virus in culture; details: Severe acute respiratory syndrome coronavirus 2, Vero, read-out: Antiviral activity EC50 1074 # 2 strain Vero cells
Vero cells [9] = test system: Vero cells
[10] = test system: SARS-COV-2 UK (NVDBB) strain; assay: microbe, parasite or virus in culture; details: Severe acute respiratory syndrome coronavirus 2, Vero, read-out: Antiviral activity EC50 UK (NVDBB) strain Vero cells
[11] = test system: SARS-COV-2 UK (NVDBB) strain
Vero cells [12] = type: cell-based
[13] = test system: cytomegalovirus (HCMV) AD-169 strain; assay: microbe, parasite or virus in culture; details: Human betaherpesvirus 5, AD169, HEL, read-out: Antiviral activity EC50 AD-169 strain, HCMV in HEL cells; plaque formation reduced by 50%; 100 PFU
TK^+ VZV strain OKA [14] = assay: microbe, parasite or virus in culture; details: Human alphaherpesvirus 3, HEL, read-out: Antiviral activity EC50 TK^+ VZV strain OKA, VZV in HEL cells; plaque formation reduced by 50%; 20 PFU
TK^− VZV strain 07-1 [15] = assay: microbe, parasite or virus in culture; details: Human alphaherpesvirus 3, HEL, read-out: Antiviral activity EC50 TK^− VZV strain 07-1., VZV in HEL cells; plaque formation reduced by 50%; 20 PFU

Molecule: CC(=O)NCC(=O)N[C@H](Cc1ccccc1)C(=O)N[C@H](C=O)Cc1c[nH]cn1 [TRIP 5] (Ac-Gly-[dF]-His-aldehyde)
- EC50 [1]: > 20 µM
- CC50 (in vitro): > 100 µM
- Cytotoxicity Cell morphology (MCC) ([2]; Table 3 (HCMV experiment)): 100 μM
- Cytotoxicity Cell morphology (MCC) ([2]; Table 4 (VZV experiment)): >100 μM
- EC50 (TK^+ VZV strain OKA [3]): > 100 µM
- EC50 (TK^− VZV strain 07-1 [4]): > 100 µM
- IC50 [5]: 2.51 ± 0.24 µM
- Kd [5]: 1.26 ± 0.12 µM
- EC50 [6]: > 100 µM

Molecule: CC(C)(C)OC(=O)NCC(=O)N[C@H](Cc1ccccc1)C(=O)N[C@H](C=O)Cc1c[nH]cn1 [TRIP 43] (Boc-Gly-[dF]-His-aldehyde)
- EC50 [1]: > 20 µM
- CC50 (in vitro): > 100 µM
- Cytotoxicity Cell morphology (MCC) ([2]; Table 3 (HCMV experiment)): 100 μM
- Cytotoxicity Cell morphology (MCC) ([2]; Table 4 (VZV experiment)): >100 μM
- EC50 (TK^+ VZV strain OKA [3]): > 100 µM
- EC50 (TK^− VZV strain 07-1 [4]): > 100 µM
- EC50 [6]: > 100 µM

Molecule: larazotide acetate [AT1001 acetate]
- docking in the catalytic domain of the M^pro enzyme (M^pro enzyme): docks extremely well

Molecule: O=CCNC(=O)[C@@H](Cc1c[nH]cn1)NC(=O)[C@H](Cc1c[nH]cn1)NC(=O)C1Cc2ccccc2CN1 (stereo partly drawn) [TRIP 41] (H-[ξTic]H[dH]G-aldehyde)
- IC50 [5]: > 425 µM

Molecule: CC(=O)NCC(=O)N[C@@H](Cc1ccccc1)C(=O)N[C@H](Cc1c[nH]cn1)C(=O)NCC=O [TRIP 42] (Ac-GF[dH]G-aldehyde)
- IC50 [5]: > 425 µM

Molecule: CC(=O)NCC(=O)NC(Cc1ccc(O)cc1)C(=O)N[C@H](C=O)Cc1c[nH]cn1 (stereo partly drawn) [TRIP 23] (Ac-Gly-[ξY]-His-aldehyde)
- IC50 [5]: 198 µM

Molecule: CCC(CC)COC(=O)[C@H](C)N[P@](=O)(OC[C@H]1O[C@@](C#N)(c2ccc3c(N)ncnn23)[C@H](O)[C@@H]1O)Oc1ccccc1 [Remdesivir]
- CC50 (in vitro; Cytotoxicity Cell growth (CC50)): > 80 µM
- EC50 ([7]; read-out: Antiviral activity EC50 1074 # 2 strain Vero cells): 1.17 µM
- EC50 [8]: 1.01 µM
- CC50 (Vero cells [9]; African green monkey): 59.1 µM
- EC50 [10]: 0.19 µM

Molecule: CCCCCCC(=O)NCC(=O)N[C@H](Cc1ccccc1)C(=O)N[C@H](C=O)Cc1c[nH]cn1 [TRIP 44] (Heptanoyl-Gly-[dF]-His-aldehyde)
- EC50 [1]: > 20 µM
- CC50 (in vitro): > 100 µM
- Cytotoxicity Cell morphology (MCC) ([2]; Table 3 (HCMV experiment)): 100 μM
- Cytotoxicity Cell morphology (MCC) ([2]; Table 4 (VZV experiment)): >100 μM
- EC50 (TK^+ VZV strain OKA [3]): > 100 µM
- EC50 (TK^− VZV strain 07-1 [4]): > 100 µM
- EC50 [6]: > 100 µM

Molecule: NC(=O)c1nc(F)cnc1O [T-705, reference compound]
- Antiviral activity EC50 UK (NVDBB) strain Vero cells [11]: 23.39 µg/mL
- Antiviral activity EC50 1074 # 2 strain Vero cells [7]: 76.15 µg/mL and 81.79 µg/mL
- Cytotoxicity Cell growth (CC50) (Vero cells [9]): >200 µg/mL
- Cytotoxicity Cell morphology (MCC) (Vero cells [12]): >200 μg/ml

Molecule: Nc1ccn(C[C@@H](CO)OCP(=O)(O)O)c(=O)n1 [Cidofovir (CDV), Cidofovir, reference compound]
- EC50 [1]: 1.08 µM
- EC50 [13]: 1.39 µM
- Cytotoxicity Cell morphology (MCC) ([2]; Table 3 (HCMV experiment)): 317 μM

Molecule: CC(C)C[C@H](C=O)NC(=O)[C@H](Cc1ccccc1)NC(=O)C1Cc2ccccc2CN1 (stereo partly drawn) [TRIP 3] (H-[ξTic]-Phe-[dL]-aldehyde)
- IC50 [5]: > 425 µM

Molecule: O=c1[nH]c(=O)n([C@H]2C[C@H](O)[C@@H](CO)O2)cc1/C=C/Br [Brivudine (BVDU), Brivudine, reference compound]
- Cytotoxicity Cell morphology (MCC) ([2]; Table 4 (VZV experiment)): >300.3 μM
- EC50 (TK^+ VZV strain OKA [14]): 0.27 µM
- EC50 (TK^+ VZV strain OKA [3]): 0.17 µM
- EC50 (TK^− VZV strain 07-1 [15]): 5.89 µM
- EC50 (TK^− VZV strain 07-1 [4]): 4.53 µM
